The supplement of paper PMC10307832

Columns and labels:
Test in all cases: relative viability (nuclei count vs DMSO), 5 days (fraction); higher = more cells survive
R406 + Foretinib = compound: COc1cc(Nc2ncc(F)c(Nc3ccc4c(n3)NC(=O)C(C)(C)O4)n2)cc(OC)c1OC [R406] + COc1cc2c(Oc3ccc(NC(=O)C4(C(=O)Nc5ccc(F)cc5)CC4)cc3F)ccnc2cc1OCCCN1CCOCC1 [Foretinib] (partner 0.25 µM)
In short: (§1)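 Lung cancer cell lines were pin-tool dosed in 1536-well plates on the day after seeding, with either a lone drug or a fixed anchor-drug dose plus five library-drug doses (not always all listed) in √10 steps. Nuclei were counted on 4× images after 5 days. Relative viability is the ratio of treated-well to vehicle-well nuclei counts, with each value a median of duplicate plates.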

R406 + Linsitinib = compound: COc1cc(Nc2ncc(F)c(Nc3ccc4c(n3)NC(=O)C(C)(C)O4)n2)cc(OC)c1OC [R406] + C[C@]1(O)C[C@@H](c2nc(-c3ccc4ccc(-c5ccccc5)nc4c3)c3c(N)nccn32)C1 [Linsitinib] (partner 1 µM)
In short: as §1

Daporinad + Pictilisib = compound: O=C(/C=C/c1cccnc1)NCCCCC1CCN(C(=O)c2ccccc2)CC1 [Daporinad] + CS(=O)(=O)N1CCN(Cc2cc3nc(-c4cccc5[nH]ncc45)nc(N4CCOCC4)c3s2)CC1 [Pictilisib] (partner 1 µM)
In short: as §1

R406 + Crizotinib = compound: COc1cc(Nc2ncc(F)c(Nc3ccc4c(n3)NC(=O)C(C)(C)O4)n2)cc(OC)c1OC [R406] + C[C@@H](Oc1cc(-c2cnn(C3CCNCC3)c2)cnc1N)c1c(Cl)ccc(F)c1Cl [Crizotinib] (partner 1 µM)
In short: as §1

Cell Line | relative viability (R406 + Foretinib; first compound 0.08 µM) | relative viability (R406 + Foretinib; first compound 0.253 µM) | relative viability (R406 + Foretinib; first compound 0.8 µM) | relative viability (R406 + Foretinib; first compound 2.53 µM) | relative viability (R406 + Foretinib; first compound 8 µM) | relative viability (R406 + Linsitinib; first compound 0.08 µM) | relative viability (R406 + Linsitinib; first compound 0.253 µM) | relative viability (R406 + Linsitinib; first compound 0.8 µM) | relative viability (R406 + Linsitinib; first compound 2.53 µM) | relative viability (R406 + Linsitinib; first compound 8 µM) | relative viability (Daporinad + Pictilisib; first compound 0.0005 µM) | relative viability (Daporinad + Pictilisib; first compound 0.001581 µM) | relative viability (Daporinad + Pictilisib; first compound 0.005 µM) | relative viability (Daporinad + Pictilisib; first compound 0.01581 µM) | relative viability (R406 + Crizotinib; first compound 0.08 µM) | relative viability (R406 + Crizotinib; first compound 0.253 µM) | relative viability (R406 + Crizotinib; first compound 0.8 µM) | relative viability (R406 + Crizotinib; first compound 2.53 µM) | relative viability (R406 + Crizotinib; first compound 8 µM)
NCI-H358 | 0.75 | 0.795 | 0.886 | 0.335 | 0.156 | 0.889 | 0.752 | 0.723 | 0.418 | 0.336 | 0.266 | 0.405 | 0.338 | 0.438 | 0.639 | 0.587 | 0.498 | 0.434 | 0.221
NCI-H661 | 0.895 | 1.04 | 0.988 | 1 | 0.76 | 0.436 | 0.72 | 0.515 | 0.39 | 0.335 | 0.412 | 0.376 | 0.487 | 0.357 | – | 1.01 | 1.02 | 0.882 | 1.14
COR-L23 | 0.925 | 1.18 | 1.12 | 0.931 | 0.665 | 0.886 | 1.04 | 1.04 | 0.731 | 0.405 | 0.777 | 0.952 | 0.721 | 0.368 | 0.612 | 0.797 | 0.733 | 0.708 | 0.383
COR-L 105 | 0.898 | 1.4 | 1.34 | 1.1 | 0.504 | 0.968 | 1.13 | 0.879 | 0.705 | 0.736 | 0.348 | 0.364 | 0.36 | 0.537 | 0.955 | 0.89 | 0.822 | 0.8 | 0.263
LK-2 | 1.14 | 1.45 | 1.1 | 0.888 | 0.344 | 0.513 | 0.573 | 0.641 | 0.379 | 0.11 | 0.605 | 0.689 | 0.46 | 0.354 | 0.275 | 0.224 | 0.178 | 0.255 | 0.259
201T | 1.13 | 1.32 | 1.21 | 0.829 | 0.708 | 0.995 | 1.06 | 1.07 | 0.915 | 0.824 | 0.657 | 0.675 | 0.682 | 0.635 | 0.994 | 1.06 | 1.03 | 1.05 | 0.974
NCI-H647 | 1.24 | 1.2 | 1.15 | 0.917 | 1.05 | 0.813 | 1.21 | 1.15 | 0.763 | 0.159 | 0.403 | 0.556 | 0.489 | 0.53 | 0.987 | 1.35 | 1.26 | 0.573 | 0.0968
H3255 | 0.868 | – | 0.872 | 0.878 | 0.673 | 0.84 | 1.08 | 1.04 | 0.8 | 0.725 | 0.46 | 0.488 | 0.507 | 0.469 | 0.82 | 1.13 | 0.873 | 0.761 | 0.77
NCI-H650 | 0.968 | 1.17 | 1.03 | 0.914 | 0.864 | 0.909 | 0.876 | 1.15 | 0.473 | 0.528 | 0.937 | 0.962 | 1.02 | 1.05 | 0.809 | 0.848 | 0.713 | 0.59 | 0.532
NCI-H2023 | 0.905 | 0.703 | 0.768 | 0.896 | 0.368 | 0.633 | 0.714 | 0.62 | 0.253 | 0.55 | 0.252 | 0.3 | 0.245 | 0.278 | 0.705 | 0.855 | 0.681 | 0.254 | 0.145
NCI-H23 | 0.989 | 1.05 | 0.977 | – | 0.206 | 0.494 | 0.7 | 0.7 | 0.56 | 0.459 | 0.59 | 0.502 | 0.446 | 0.347 | 0.458 | 0.607 | 0.571 | 0.439 | 0.285
NCI-H596 | 0.926 | 1 | 0.957 | 0.726 | 0.162 | 1.09 | 1.2 | 1.2 | 0.878 | 0.232 | 0.402 | 0.371 | 0.421 | 0.448 | 0.837 | 1.1 | 1.09 | 0.796 | 0.245
A549 | 0.961 | 1 | 0.94 | 0.959 | 0.396 | 0.52 | 0.659 | 0.619 | 0.584 | 0.418 | 0.548 | 0.529 | 0.61 | 0.469 | 0.785 | 0.837 | 0.941 | 0.337 | 0.175
NCI-H520 | 0.831 | 1 | 0.883 | 0.293 | 0.421 | 0.897 | 1.09 | 1.07 | 0.486 | 0.295 | 0.346 | 0.29 | 0.29 | 0.187 | 0.735 | 1.09 | 0.875 | 0.58 | 0.269
EKVX | 0.79 | 1 | 0.821 | 0.567 | 0.609 | 1.05 | 1.32 | 1.19 | 0.9 | 0.688 | 0.478 | 0.432 | 0.412 | 0.464 | 0.949 | 0.986 | 1.09 | 0.867 | 0.806
NCI-H1944 | 0.867 | 0.93 | 0.966 | 0.756 | 0.682 | 1.21 | 1.24 | 1.22 | 0.879 | 0.741 | 0.366 | 0.346 | 0.389 | 0.34 | 1.1 | 1.24 | 1.04 | 0.875 | 0.737
EPLC-272H | 0.425 | 0.617 | 0.792 | 0.304 | 0.126 | 1.1 | 1.18 | 1.15 | 0.717 | 0.564 | 0.295 | 0.382 | 0.387 | 0.436 | 0.798 | 1.07 | 1.09 | 0.533 | 0.49
NCI-H1563 | 0.777 | 1 | 0.939 | 0.82 | 0.624 | 1.12 | 1.31 | 1.29 | 1.2 | 1.16 | 0.639 | 0.642 | 0.605 | 0.701 | 0.791 | 0.868 | 0.891 | 0.913 | 0.619
NCI-H2126 | 1.16 | 0.824 | 1.26 | 1.04 | 1 | 0.683 | 0.783 | 0.753 | 0.657 | 0.625 | 0.529 | 0.516 | 0.485 | 0.486 | 0.965 | 1.11 | 1.01 | 1.02 | 0.995
LXF-289 | 1.01 | 1.03 | 0.969 | 0.999 | 0.238 | 0.922 | 0.967 | 0.994 | 0.989 | 0.295 | 0.714 | 0.862 | 0.879 | 0.859 | 0.739 | 0.918 | 0.833 | 0.832 | 0.259
NCI-H2009 | 1.19 | 1.35 | 1.17 | 1.27 | 0.368 | 1.09 | 1.3 | 1.19 | 1.18 | 1.07 | 0.784 | 1 | 0.938 | 0.661 | 1.07 | 1.02 | 1.13 | 0.815 | 0.301
SK-MES-1 | 0.892 | 0.921 | 0.976 | 0.49 | 0.396 | 1.04 | 1.13 | 1.1 | 0.569 | 0.488 | 0.296 | 0.4 | 0.345 | 0.306 | 0.992 | 1.04 | 0.959 | 0.73 | 0.43
NCI-H2405 | 0.961 | 1.15 | 1.11 | 0.934 | 0.775 | 0.916 | 0.89 | 1.01 | 0.731 | 0.221 | 0.505 | 0.485 | 0.5 | 0.377 | 0.769 | 0.989 | 0.861 | 0.78 | 0.638
NCI-H1755 | 0.923 | 0.946 | 0.894 | 0.677 | 0.598 | 0.924 | 1.02 | 1.02 | 0.779 | 0.688 | 0.442 | 0.44 | 0.452 | 0.457 | 0.81 | 0.954 | 0.861 | 0.641 | 0.188
HCC-78 | 0.562 | 0.602 | 0.642 | 0.57 | 0.56 | 0.534 | 0.394 | 0.544 | 0.489 | 0.25 | 0.217 | 0.145 | 0.166 | 0.259 | 0.356 | 0.318 | 0.398 | 0.302 | 0.269
LOU-NH91 | 0.918 | 0.975 | 0.918 | 0.518 | 0.475 | 0.992 | 0.882 | 0.982 | 0.602 | 0.521 | 0.528 | 0.568 | 0.587 | 0.577 | 0.745 | 0.728 | 0.756 | 0.504 | 0.57
IA-LM | 1.23 | 1.43 | 0.958 | 1.36 | 1.02 | 0.746 | 0.901 | 0.921 | 1.01 | 0.887 | 0.357 | 0.321 | 0.308 | 0.307 | 0.972 | 1.21 | 1.01 | 1.11 | 0.657
NCI-H3122 | 0.962 | 0.959 | 0.931 | – | 0.887 | 0.976 | 0.921 | 0.982 | 1.01 | 0.98 | 0.446 | 0.617 | 0.677 | 0.692 | 0.286 | 0.257 | 0.247 | 0.25 | 0.259
